Assay results from US20210147481A1, “PEPTIDE-BASED INHIBITORS OF MARK FAMILY PROTEINS” (Ohio Universtiy, priority 2017, published 2021).
Peptide text beside a SMILES is read from it.

Assays:
MARK2 = MARK2 (Homo sapiens, UniProt Q7KZI7); test: Validation of tR1 as a substrate for MARK2 (western blot, α-pTau Ser262); assay type: biochemical; conditions: ATP, 60 minutes at 32° C.
From the text: Once an otherwise competent kinase-substrate pair was developed for a working phosphorylation assay, tR1 was validated as a substrate for MARK2. The tR1 peptide (NVKSKIGSTENLK [SEQ ID NO: 1]) was synthesized using standard Fmoc-based solid-phase synthesis procedures and the final sequence was either acylated (tR1) or labeled with 5-carboxyfluorescein (tR1) on its N-terminus (FIG. 6A). See the experimental procedures, below, for details on the synthesis, labeling, purification and characterization of tR1 peptides. To evaluate whether tR1 is recognized as a substrate by MARK2, MARK2 was incubated with ATP in the presence of varying concentrations of tR1 peptide for 60 minutes at 32° C. in phosphorylation buffer. Following incubation, phosphorylated tR1 peptides were separated by SDS-PAGE and identified by Western blot using antibodies specific for hTau pSer262 (FIG. 6B). Western blot analysis confirmed tR1 as a substrate of MARK2 by the presence of a sharp band at the highest concentration (100 μM).
Phosphorylation assays were performed in 30 μL phosphorylation buffer (50 mM Tris-HCl, 5 mM MgCl2, 2 mM EGTA, 0.5 mM DTT, 0.5 mM benzamidine HCl, 0.5 mM PMSF, pH 8.0) and depending on the experimental conditions. […] Images were acquired by a Bio-Rad Gel Doc EZ imager and the band intensity was quantified using Image Lab Software c5.2.1 (Bio-Rad).

[1] = In vitro peptide stability in neurobasal (NB) media (RP-HPLC); assay type: in vitro ADME; conditions: 37° C., up to 24 hours
Protocol: Stock peptide solutions for use in stability assays were prepared by dissolving tR1 to a final concentration of 5 mg/mL in dimethyl sulfoxide (DMSO). For stability tests, 2 μL of stock tR1 peptides were added to 198 μL pre-warmed RPMI medium supplemented with 25% (v/v) heat-inactivated human AB serum or neurobasal (NB) media at a final concentration of 50 μg/mL. Each reaction was subsequently incubated at 37° C. for the indicated times. Following incubation, 400 μL aqueous trichloroacetic acid (15%, w/v) was added to each reaction and the samples were immediately cooled on ice for 15 minutes. The samples were then centrifuged 3× at 14,000 rpm to remove precipitated proteins. […] The background signal was subtracted from each respective spectrum and the fraction of intact peptide was quantified from product peak integration normalized to undigested controls. […]
A major limitation to the therapeutic efficacy of peptides is their susceptibility to proteolytic degradation. Indeed, short peptides generally have a serum half-life measured in minutes. The in vitro stability of tR1 peptides in the presence of proteolytic enzymes was determined. […] Following the incubation, the reactions were quenched using haloacetic acids and the extent of degradation was quantified by analytical HPLC.

[2] = system: rat primary cortical neurons; conditions: 72 hours
Protocol: Primary cells were isolated from embryonic Sprauge-Dawley rats and cultured as described.
High density rat primary cortical neurons (5-7 DIV) cultured in polyE coated 24-well plates were used for this assay. Culture media was switched to neurobasal without B27 supplement (NB-B27) before the addition of tR1 peptides. […] For the MTT assay, 50 μg/mL MTT working solution was diluted from a 5 mg/mL MTT stock (water solution made from MTT powder, Alfa Aesar L11939) in NB-B27. After aspirating out the culture media, cells were incubated with 0.2 mL 50 μg/mL MTT working solution for one hour at 37° C. Then, the MTT solution was aspirated and replaced with 0.5 mL DMSO. The whole DMSO solution was transferred to a cuvette and read in the spectrophotometer (Cary UV 50, Varian) at 550 nm with subtraction of the reading at 650 nm wavelength.

Sequence of MARK2 (Q7KZI7 whole entry): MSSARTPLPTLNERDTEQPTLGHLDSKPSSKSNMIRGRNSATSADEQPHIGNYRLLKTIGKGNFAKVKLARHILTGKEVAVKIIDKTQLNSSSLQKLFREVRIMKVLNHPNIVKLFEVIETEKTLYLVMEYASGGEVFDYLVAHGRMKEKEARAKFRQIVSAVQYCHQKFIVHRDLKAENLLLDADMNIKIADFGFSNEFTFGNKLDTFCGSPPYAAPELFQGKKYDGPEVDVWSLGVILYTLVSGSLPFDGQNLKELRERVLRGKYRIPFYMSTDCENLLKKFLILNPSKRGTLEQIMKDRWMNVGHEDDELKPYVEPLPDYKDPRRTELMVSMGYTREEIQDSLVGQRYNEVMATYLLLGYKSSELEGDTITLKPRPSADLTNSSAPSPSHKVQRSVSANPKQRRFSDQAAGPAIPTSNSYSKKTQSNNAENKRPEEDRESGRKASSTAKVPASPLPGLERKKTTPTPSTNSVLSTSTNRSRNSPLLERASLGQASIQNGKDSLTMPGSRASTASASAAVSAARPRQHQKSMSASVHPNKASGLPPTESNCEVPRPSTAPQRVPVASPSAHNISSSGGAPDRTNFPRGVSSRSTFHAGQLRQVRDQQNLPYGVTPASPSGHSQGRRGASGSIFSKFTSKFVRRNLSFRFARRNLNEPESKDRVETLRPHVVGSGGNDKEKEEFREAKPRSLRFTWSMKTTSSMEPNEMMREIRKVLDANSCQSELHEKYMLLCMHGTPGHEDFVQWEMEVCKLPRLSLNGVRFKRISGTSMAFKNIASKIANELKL

CC[C@H](C)[C@H](NC(=O)[C@H](CCCCN)NC(=O)[C@H](CO)NC(=O)[C@H](CCCCN)NC(=O)[C@@H](NC(=O)[C@H](CC(N)=O)NC(C)=O)C(C)C)C(=O)NCC(=O)N[C@@H](CO)C(=O)N[C@H](C(=O)N[C@@H](CCC(=O)O)C(=O)N[C@@H](CC(N)=O)C(=O)N[C@@H](CC(C)C)C(=O)N[C@@H](CCCCN)C(N)=O)[C@@H](C)O [tR1, NVKSKIGSTENLK] (Ac-NVKSKIGSTENLK-NH2)
phosphorylation of tR1 by MARK2 (western blot) (MARK2; 0, 1, or 10 μM peptide): Phosphorylation was not seen
phosphorylation of tR1 by MARK2 (western blot) (MARK2; 100 μM peptide): sharp band
fraction of intact tR1 (stable) [1]: > 90%
remaining at 24 h, 50 μg/mL ([1]; neurobasal (NB) media, read-out: fraction of intact tR1 (stable)): > 90%
concentrations at which tR1 is non-toxic ([2]; MTT): up to 300 μM
loss in cell viability ([2]; highest concentrations of tR1 (0-300 μM)): < 5%
